Molecules are shown by their SMILES. Where a name gives a salt, the structure may show the parent alone. Read-outs that look alike come from different tables or passages of the source.

From article PMC6965684, “Characterization of binding, functional activity, and contractile responses of the selective 5‐HT1F receptor agonist lasmiditan” (British Journal of Pharmacology, 2019) come the findings set out here.

For one assay, the target named is T1, 5-HT1F receptor (Homo sapiens, UniProt P30939).
T1 construct: gene HTR1F; full-length human recombinant receptor in CHO-K1 cells (Ogeda)
T1 sequence (P30939 1-366): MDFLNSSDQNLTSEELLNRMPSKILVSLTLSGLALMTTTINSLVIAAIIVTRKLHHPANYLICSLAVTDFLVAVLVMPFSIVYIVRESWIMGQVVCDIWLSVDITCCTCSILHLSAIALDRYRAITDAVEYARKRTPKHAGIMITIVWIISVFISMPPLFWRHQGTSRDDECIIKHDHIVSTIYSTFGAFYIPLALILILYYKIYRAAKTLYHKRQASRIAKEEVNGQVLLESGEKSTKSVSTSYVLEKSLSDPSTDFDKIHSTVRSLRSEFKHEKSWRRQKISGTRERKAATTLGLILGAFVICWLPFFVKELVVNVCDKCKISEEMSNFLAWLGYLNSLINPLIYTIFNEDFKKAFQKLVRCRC
Briefly: biochemical. Also noted: radioligand competition binding on cell membranes, filtration and TopCount scintillation counting. The following applies: radioligand displacement; for IC50: read-out: 5‐HT1F / pIC50 (converted); for Ki: read-out: 5‐HT1F / pKi (converted). The format is CHO-K1 membranes. How it is done:
Competition binding was performed in duplicate in the wells of a 96‐well plate containing binding buffer (optimized for each receptor), cell membrane extracts (approximately 20,000 cells distributed in the 96‐well plate), radiotracer, and test agonist. Non‐specific binding was determined by co‐incubation with 200‐fold excess of competitor. Cells were incubated and exposed to varying concentrations (1 pM to 10 μM) of a range of displacer agonists (see below). The samples were incubated in a final volume of 0.1 ml and then filtered over Unifilter plates (Perkin Elmer, Massachusetts, USA) pretreated for 2 hr to limit tracer non‐specific binding. Filters were washed five times with 0.5 ml of ice‐cold washing buffer (tris 50 mM pH 7.4) and 50 μl of Microscint 20 (Perkin Elmer) were added to each filter. The plates were incubated 15 min at room temperature on an orbital shaker and then counted with a TopCount™ (Perkin Elmer) for 1 min per well. […] Additionally, the reference values obtained were compared to historical values obtained from the same receptor and used to validate the experimental session. […] For the new assays developed in this study (i.e., 5‐ht1E receptor), the two independent pIC50 determined must be concordant with a 1 log unit interval for the assays to be validated. […]

Another assay has as its target T2, 5-ht1E receptor (Homo sapiens, UniProt P28566).
T2 construct: gene HTR1E; full-length human recombinant receptor in CHO-K1 cells (Ogeda); crude membranes
Briefly: biochemical. Also on record: radioligand competition binding on cell membranes, filtration and TopCount scintillation counting. The format is CHO-K1 membranes. The following applies: radioligand displacement; read-out: 5‐ht1E / pIC50 (converted). As for the experimental part: (§1) Competition binding was performed in duplicate in the wells of a 96‐well plate containing binding buffer (optimized for each receptor), cell membrane extracts (approximately 20,000 cells distributed in the 96‐well plate), radiotracer, and test agonist. Non‐specific binding was determined by co‐incubation with 200‐fold excess of competitor. Cells were incubated and exposed to varying concentrations (1 pM to 10 μM) of a range of displacer agonists (see below). The samples were incubated in a final volume of 0.1 ml and then filtered over Unifilter plates (Perkin Elmer, Massachusetts, USA) pretreated for 2 hr to limit tracer non‐specific binding. Filters were washed five times with 0.5 ml of ice‐cold washing buffer (tris 50 mM pH 7.4) and 50 μl of Microscint 20 (Perkin Elmer) were added to each filter. The plates were incubated 15 min at room temperature on an orbital shaker and then counted with a TopCount™ (Perkin Elmer) for 1 min per well. […] Additionally, the reference values obtained were compared to historical values obtained from the same receptor and used to validate the experimental session. […] For the new assays developed in this study (i.e., 5‐ht1E receptor), the two independent pIC50 determined must be concordant with a 1 log unit interval for the assays to be validated.
In general terms: Loss of bound radioactivity is the signal in a displacement assay; it reports binding, not function.

Assay [1] addresses T3, 5-HT2B receptor (Homo sapiens, UniProt P41595).
T3 construct: gene HTR2B; full-length human recombinant receptor in CHO-K1 cells (Ogeda); crude membranes
Briefly: biochemical. The format is CHO-K1 membranes. Also on record: radioligand competition binding on cell membranes, filtration and TopCount scintillation counting. The following applies: radioligand displacement; read-out: 5‐HT2B / pIC50 (converted). As for the experimental part:
as §1

The target of assay [2] is T4, 5-HT1B receptor (Homo sapiens, UniProt P28222).
T4 construct: gene HTR1B; full-length human recombinant receptor in CHO-K1 cells (Ogeda); crude membranes
In words: biochemical. It counts as CHO-K1 membranes. Also noted: radioligand competition binding on cell membranes, filtration and TopCount scintillation counting. The note with it: radioligand displacement; read-out: 5‐HT1B / pIC50 (converted). As for the experimental part: as §1

Assay [3] deals with T5, 5-HT1D receptor (Homo sapiens, UniProt P28221).
T5 construct: gene HTR1D; full-length human recombinant receptor in CHO-K1 cells (Ogeda); crude membranes
Briefly: biochemical. The note with it: radioligand displacement; read-out: 5‐HT1D / pIC50 (converted). Also on record: radioligand competition binding on cell membranes, filtration and TopCount scintillation counting. It counts as CHO-K1 membranes. As for the experimental part:
as §1

The target in assay [4] is T3, 5-HT2B receptor. In words: cell-based. Also on record: species or system CHO-K1; IPOne HTRF agonist assay, IP1 accumulation in adherent transfected cells. As for the experimental part: The assay was performed on adherent cells. For agonist testing, the medium was removed and 20 μl of assay buffer plus 20 μl of the studied agonist or the reference agonist were added in each well. The plate was incubated for 60 min at 37°C with 5% CO2. IP1‐D2 reagent and anti‐IP1 cryptate reagents were dispensed in the wells, and IP1 concentrations were then measured following the manufacturer instructions (IPOne HTRF assay kit; Cisbio International, Codolet, France). In brief, increasing concentrations of agonists were added to stably transfected cells in buffer in an Optiplate (PerkinElmer Life Sciences). The plates were incubated, and cells were then lysed by the addition of HTRF reagents (IP1‐D2 reagent and anti‐IP1 cryptate reagents) and diluted in lysis buffer, followed by incubation at room temperature. […] Additionally, the reference values obtained were compared to historical values obtained from the same receptor and used to validate the experimental session. […] For the new assays developed in this study (i.e., 5‐ht1E receptor), the two independent pIC50 determined must be concordant with a 1 log unit interval for the assays to be validated.

The target in assay [5] is T4, 5-HT1B receptor. In words: radioligand competition, CHO-K1 membranes. It counts as binding. The note with it: read-out: 5-HT1B / pKi (converted). From the text: radioligand competition, CHO-K1 membranes on 5-HT1B receptor
Assay [6] deals with T5, 5-HT1D receptor. In words: radioligand competition, CHO-K1 membranes. The following applies: read-out: 5-HT1D / pKi (converted). The format is binding. The source says:
radioligand competition, CHO-K1 membranes on 5-HT1D receptor

Setting [7] is: IP, read-out: 5‐HT2B / IP (converted).

T3 sequence (P41595 whole entry): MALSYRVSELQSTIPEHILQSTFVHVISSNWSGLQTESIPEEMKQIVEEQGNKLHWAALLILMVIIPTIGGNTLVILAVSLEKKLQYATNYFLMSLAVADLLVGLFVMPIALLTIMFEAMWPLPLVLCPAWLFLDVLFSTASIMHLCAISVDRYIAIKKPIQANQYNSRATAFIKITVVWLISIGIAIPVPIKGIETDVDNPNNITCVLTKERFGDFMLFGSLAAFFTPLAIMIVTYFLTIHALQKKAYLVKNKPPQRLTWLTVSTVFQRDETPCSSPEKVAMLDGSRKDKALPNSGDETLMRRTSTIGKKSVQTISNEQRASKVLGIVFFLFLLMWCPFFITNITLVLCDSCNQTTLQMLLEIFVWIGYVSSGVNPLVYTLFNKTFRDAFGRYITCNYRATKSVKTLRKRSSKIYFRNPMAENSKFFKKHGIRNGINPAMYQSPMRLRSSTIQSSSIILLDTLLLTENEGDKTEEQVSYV
T5 sequence (P28221 whole entry): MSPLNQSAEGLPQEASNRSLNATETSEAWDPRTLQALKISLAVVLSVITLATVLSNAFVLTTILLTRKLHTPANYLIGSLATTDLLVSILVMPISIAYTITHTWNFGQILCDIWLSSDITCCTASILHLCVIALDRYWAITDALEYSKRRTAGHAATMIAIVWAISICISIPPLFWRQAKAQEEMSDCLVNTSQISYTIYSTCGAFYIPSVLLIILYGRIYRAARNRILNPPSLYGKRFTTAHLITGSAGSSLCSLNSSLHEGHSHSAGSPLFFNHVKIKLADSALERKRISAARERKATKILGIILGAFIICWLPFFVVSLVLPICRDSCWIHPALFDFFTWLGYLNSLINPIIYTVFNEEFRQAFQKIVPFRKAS
T2 sequence (P28566 whole entry): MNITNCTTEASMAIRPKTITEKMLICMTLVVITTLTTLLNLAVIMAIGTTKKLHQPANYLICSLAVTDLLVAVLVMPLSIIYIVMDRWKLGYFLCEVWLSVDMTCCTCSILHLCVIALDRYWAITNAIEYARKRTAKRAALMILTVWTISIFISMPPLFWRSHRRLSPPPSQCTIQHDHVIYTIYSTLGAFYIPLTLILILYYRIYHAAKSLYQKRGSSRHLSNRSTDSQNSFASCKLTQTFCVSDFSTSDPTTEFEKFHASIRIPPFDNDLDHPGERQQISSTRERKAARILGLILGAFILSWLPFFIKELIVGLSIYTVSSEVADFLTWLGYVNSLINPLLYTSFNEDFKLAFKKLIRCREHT
T4 sequence (P28222 whole entry): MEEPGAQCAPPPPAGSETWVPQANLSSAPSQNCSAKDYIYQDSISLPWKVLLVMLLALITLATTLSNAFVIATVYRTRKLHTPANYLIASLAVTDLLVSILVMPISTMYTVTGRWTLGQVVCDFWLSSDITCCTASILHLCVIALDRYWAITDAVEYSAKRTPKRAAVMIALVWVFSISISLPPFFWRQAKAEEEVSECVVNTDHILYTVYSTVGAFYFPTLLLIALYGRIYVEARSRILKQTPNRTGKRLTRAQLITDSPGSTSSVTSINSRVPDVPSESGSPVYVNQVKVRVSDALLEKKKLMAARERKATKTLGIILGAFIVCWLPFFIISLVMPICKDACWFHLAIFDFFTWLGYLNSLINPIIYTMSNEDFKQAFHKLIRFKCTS

Regarding `CNC1CCc2[nH]c3ccc(C(N)=O)cc3c2C1` (racemic) [Frovatriptan racemate], the IC50 on 5-HT1F receptor was 316 nM; on 5-ht1E receptor, above 10000 nM. Also, at 5-HT1F receptor, the Ki is 120 nM.

For `CNS(=O)(=O)Cc1ccc2[nH]cc(CCCN3CCN(c4ncncc4OC)CC3)c2c1` [Avitriptan fumarate], the IC50 at 5-HT1F receptor was 204 nM; on 5-HT2B receptor [1], 1860 nM; at 5-HT1B receptor [2], 4.79 nM; at 5-ht1E receptor it was 7080 nM; at 5-HT1D receptor [3], 3.8 nM. On 5-HT2B receptor [4] (setting [7]), the EC50 was 389 nM. Moreover, the values for the Ki on 5-HT1B receptor [5] and at 5-HT1D receptor [6] were 1.58 nM and 0.776 nM, respectively.

Take `N#Cc1ccc(N2CCN(C(=O)COc3ccc4[nH]cc(CCN)c4c3)CC2)cc1` [Donitriptan hydrochloride]: the IC50 on 5-HT2B receptor [1] is 1320 nM; on 5-HT1B receptor [2], 0.513 nM; on 5-ht1E receptor it was 3390 nM; at 5-HT1D receptor [3], 0.661 nM. Besides, the EC50 on 5-HT2B receptor [4] is 24.5 nM. Besides, the Ki at 5-HT1B receptor [5] is 0.17 nM; at 5-HT1D receptor [6], 0.138 nM.

Regarding `CN1CCC[C@@H]1Cc1c[nH]c2ccc(CCS(=O)(=O)c3ccccc3)cc12` [Eletriptan hydrobromide], the IC50 is 44.7 nM at 5-HT1F receptor; 724 nM at 5-HT2B receptor [1]; 1.58 nM on 5-HT1B receptor [2]; 123 nM on 5-ht1E receptor; 0.49 nM on 5-HT1D receptor [3]. In addition, the EC50 at 5-HT2B receptor [4] (setting [7]) is 155 nM. For the same compound, the Ki on 5-HT1B receptor [5] was 0.525 nM; on 5-HT1D receptor [6] it was 0.102 nM.

As to `CN(C)[C@@H]1CCc2[nH]c3ccc(NC(=O)c4ccc(F)cc4)cc3c2C1` [LY344864 hydrochloride], on 5-HT1F receptor, the IC50 was 4.17 nM and the Ki is 1.58 nM. Further, the IC50 on 5-HT2B receptor [1] was 4900 nM. For the same compound, on 5-HT2B receptor [4] (setting [7]), the EC50 was above 10000 nM.

Consider `CNS(=O)(=O)CCc1ccc2[nH]cc(C3CCN(C)CC3)c2c1` [Naratriptan hydrochloride], for which the values for the IC50 on 5-HT1F receptor, at 5-HT2B receptor [1] and at 5-HT1D receptor [3] were 4.68 nM, above 10000 nM and 2.4 nM, respectively. The EC50 on 5-HT2B receptor [4] (setting [7]) is above 10000 nM. Further, the Ki was 0.603 nM on 5-HT1B receptor [5] and 0.501 nM on 5-HT1D receptor [6].
